Assays:
Format in all cases: cell-based
ACKR3 [1] = molecular target: T1, ACKR3 (Homo sapiens, UniProt P25106); experiment: NanoBiT-complementation β-arrestin2 recruitment to hACKR3 in HEK293T cells; conditions: for EC50: * VUF16840 as inverse agonist, 15 minutes incubation, read-out: β-arrestin2 NanoBit pEC50 (converted)
T1 construct: expressed in transfected cells; host or cells: HEK293T
Description: (§1) For 1·10^6 HEK293T cells, a transfection mix consisting of 2 μg plasmid DNA, 12 μg linear PEI in a total volume of 200 μL 150 mM NaCl was made and thoroughly vortexed. The transfection mix was incubated for 15 minutes and consequently added to a cell suspension with a final concentration of 3·10^5 cells/mL. For functional studies this cell suspension was immediately transferred to a poly-L-lysine-coated white 96-well plate, with 3·10^4 cells per well. […] For BRET-based membrane localization experiments, the 2 μg plasmid DNA consisted of ACKR3-NL (0.05 μg), mVenus-CAAX (0.25 μg), and pcDEF3 vector DNA without insert (1.7 μg).
(§2) Two days after transfection (vide supra), medium was aspirated and cells were reconstituted in HBSS with 0.05% BSA. […] After treating the cell with ligand furimazine was added (310 times diluted from stock concentration). Cells were incubating at 37 °C for another 3 minutes before detection of bioluminescent intensities.
To determine the insurmountable antagonism of VUF16840, medium of transfected cells was aspirated and cells were reconstituted in HBSS with 20 mM HEPES and 0.1% BSA. Cells were incubated with VUF16840 or buffer for 60 minutes after which furimazine was added and cells were incubated for another 5 minutes, all at 37 °C.
(§3) Bioluminescence was measured using the PHERAstar-FSX and is a measure for the relative proximity of LgBiT- and SmBiT-tagged proteins and thus the occurrence of investigated protein–protein interaction.[38]
(§4) Mean pIC50 values were determined by averaging fitted values from individual experiments. Graphs depict the pooled data of all experiments. Similarly, sigmoidal, ligand-induced concentration-dependent activation or inhibition of the proximity between ACKR3 and the protein of interest was analyzed using GraphPad Prism 8, by fitting a 3-parameter concentration-response model to the data, to determine pEC50/pIC50 values. Mean pEC50 values and pIC50 values were determined by averaging fitted values from individual experiments. Graphs depict the pooled data of all experiments, for which values are normalized, per experiment, to the fold difference compared with basal signal.

ACKR3 [2] = molecular target: T1, ACKR3; experiment: BRET β-arrestin2 recruitment to hACKR3 in HEK293T cells; conditions: for EC50: * VUF16840 as inverse agonist, mean ± SD (N), read-out: β-arrestin2 BRET pEC50 (converted)
Description: (§5) For bioluminescence resonance energy transfer (BRET) experiments, several BRET acceptor constructs were used that consist of the pcDEF3 vector with either GRK2 (NCBI: NM_174710.2), β-arrestin1 (NCBI: NM_174243.3), or β-arrestin2 (NCBI: XM_005220181.4) fused at the C-terminus with a SpeI/NotI linker to mVenus (NCBI: KP666136.1), as previously described.[34]
as §1, §4

ACKR3 [3] = molecular target: T1, ACKR3; experiment: BRET β-arrestin1 recruitment to ACKR3 in HEK293T cells; conditions: for EC50: * VUF16840 as inverse agonist, read-out: β-arrestin1 BRET pEC50 (converted); for IC50: read-out: β-arrestin1 BRET, Inhibition by VUF16840 (pIC50) (converted)
Description: as §5, §1, §4
(§6) HEK293T cells were stimulated with increasing concentrations of VUF15485 or VUF16840 only (A–D), or increasing concentrations of VUF16840 in the presence of 100 nM VUF15485 (E–H). The resulting proximity between ACKR3 and β-arrestin1 (A, E), GRK2 (B, F), or Rab5a (C, G) was determined by bioluminescence resonance energy transfer. Furthermore, an interaction between clathrin A and β-arrestin2 was measured by NLuc complementation, as was determined by quantifying the relative light units (D, H). Depicted data is normalized as fold-basal and represents the mean ± SD of N experiments with triplicate measurements per experiment. N is specified in Supplemental Table 1.

ACKR3 [4] = molecular target: T1, ACKR3; experiment: NanoBiT clathrin A/β-arrestin2 interaction in ACKR3-expressing HEK293T cells
Description: as §1, §2, §3
as §6, with “Fig. 5 Inhibition of both constitutive as well as agonist-induced ACKR3 activity by VUF16840. HEK293T” for “HEK293T”

ACKR3 [5] = molecular target: T1, ACKR3; experiment: ACKR3 signaling and trafficking sensor assays summarised together (β-arrestin1, GRK2, Rab5a, clathrin A)
Description: as §1
Next, it was explored whether VUF16840 could also affect a number of additional ACKR3 signaling or trafficking events. Both β-arrestin1 and GRK2 are known to be recruited to hACKR3 upon activation,[10]^,[23]^,[45],[46] and phosphorylation of the C-terminus is found to be crucial for ACKR3 internalization and β-arrestin1/2 recruitment,[10]^,[47]^,[48] mediated at least in part by GRK2.[10]^,[47] Additionally, clathrin A is a structural protein involved in the formation of clathrin-coated vesicles mediating receptor packaging and internalization, whereas Rab5a is a protein highly expressed in early endosomes.[32]^,[49] […] Agonist-induced internalization of ACKR3 was further monitored by measuring the interaction between clathrin A and β-arrestin 2 using a NanoBiT-based protein–protein interaction assay (Fig. 5D).
Fig. 5 Inhibition of both constitutive as well as agonist-induced ACKR3 activity by VUF16840. […] The resulting proximity between ACKR3 and β-arrestin1 (A, E), GRK2 (B, F), or Rab5a (C, G) was determined by bioluminescence resonance energy transfer. Furthermore, an interaction between clathrin A and β-arrestin2 was measured by NLuc complementation, as was determined by quantifying the relative light units (D, H). […]

hACKR3-NLuc = molecular target: T2, hACKR3-NLuc (Homo sapiens, UniProt P25106); experiment: Bystander BRET detection of ACKR3 membrane localization; conditions: 1 μM VUF16840
T2 construct: expressed in transfected cells; host or cells: HEK293T
T2 sequence (P25106 whole entry): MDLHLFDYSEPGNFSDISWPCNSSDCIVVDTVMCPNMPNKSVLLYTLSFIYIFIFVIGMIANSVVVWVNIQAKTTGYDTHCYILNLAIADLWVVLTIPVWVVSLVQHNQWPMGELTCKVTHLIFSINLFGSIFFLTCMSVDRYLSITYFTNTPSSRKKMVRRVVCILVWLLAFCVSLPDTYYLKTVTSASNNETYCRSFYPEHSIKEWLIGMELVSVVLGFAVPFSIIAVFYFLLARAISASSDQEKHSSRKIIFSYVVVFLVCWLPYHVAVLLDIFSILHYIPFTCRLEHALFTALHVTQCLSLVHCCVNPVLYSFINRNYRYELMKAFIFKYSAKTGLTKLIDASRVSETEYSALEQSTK
Description: Ligand-induced receptor mobilization to the plasma membrane was monitored by bystander NanoBRET according to an established method.[36] For this assay, 5 × 10^6 HEK293T cells were seeded in 10-cm dishes and cotransfected with plasmids encoding ACKR3 C-terminally tagged with NLuc and mNeonGreen N-terminally tagged with the plasma membrane targeting sequence corresponding to the first 11 residues ([sequence]) of the human Lyn-kinase.[37] Twenty-four hours after transfection, cells were distributed into black 96-well plates (1 × 10^5 cells per well) and treated with chemokines (100 nM). After 45-minute incubation at 37 °C, coelenterazine H (10 μM) was added and donor emission (460 nm) and acceptor emission (535 nm) were immediately measured on a GloMax Discover (Promega) plate reader.
Similarly, to determine the concentration-dependent effects of ligand-induced ACKR3 mobilization to the cell membrane, cells were transfected with membrane-targeted mVenus (mVenus-CAAX) and ACKR3-NL (vide supra). […] Cells were subsequently incubated at 37 °C for 20 minutes after which the total light intensity was measured at 475 and 535 nm (both with a bandwidth of 30 nm) using the PHERAstar-FSX with a dual emission filter. […]
The resulting proximity between hACKR3-NLuc and was determined as bystander BRET. […] Expression of hACKR3-NLuc at the cell surface was determined by the measurement of bystander BRET. […]

T1 sequence (P25106 whole entry): as above

SMILES	EC50 (ACKR3 [1]) [nM]	EC50 (ACKR3 [2]) [nM]	EC50 (ACKR3 [3]) [nM]	EC50 (ACKR3 [4]; NanoBiT, read-out: EC50, clathrin A/β-arrestin2 interaction) [nM]	EC50 (ACKR3 [5]; agonist, range over assays, read-out: pEC50 values, recruitment of β-arrestin1 and GRK2 and translocation toward early endosomes (converted)) [nM]	fashion of inhibition of CXCL12- and CXCL11-mediated β-arrestin2 recruitment (Schild analysis) (ACKR3 [1]; 60 minutes pretreatment with VUF16840)	IC50 (ACKR3 [1]; inverse agonist, after 30 minutes of incubation, read-out: IC50, inhibition of constitutive β-arrestin2 recruitment to hACKR3 (NanoBiT)) [nM]	IC50 (ACKR3 [1]; versus 100 nM VUF15485, read-out: β-arrestin2 NanoBit, Inhibition by VUF16840 (pIC50) (converted)) [nM]	IC50 (ACKR3 [2]; constitutive, no agonist, read-out: IC50, reduction of β-arrestin2 recruitment to hACKR3 (BRET)) [nM]	IC50 (ACKR3 [2]; versus 100 nM CXCL11, read-out: β-arrestin2 BRET, Inhibition by VUF16840 (pIC50) (converted)) [nM]	IC50 (ACKR3 [2]; versus 100 nM CXCL12, read-out: β-arrestin2 BRET, Inhibition by VUF16840 (pIC50) (converted)) [nM]	IC50 (ACKR3 [2]; versus 100 nM VUF15485, read-out: β-arrestin2 BRET, Inhibition by VUF16840 (pIC50) (converted)) [nM]	IC50 (ACKR3 [3]; versus 100 nM CXCL11) [nM]	IC50 (ACKR3 [3]; versus 100 nM CXCL12) [nM]	IC50 (ACKR3 [3]; versus 100 nM VUF15485) [nM]	EC50 (ACKR3 [4]; * VUF16840 as inverse agonist, read-out: Clathrin A/ β-arrestin2 binding pEC50 (converted)) [nM]	IC50 (ACKR3 [4]; versus 100 nM VUF15485, read-out: Clathrin A/ β-arrestin2 binding, Inhibition by VUF16840 (pIC50) (converted)) [nM]	effect on bystander BRET signal hACKR3-NLuc / membrane-targeted mNeonGreen (cell surface localization) (hACKR3-NLuc)	IC50 (ACKR3 [5]; 100 nM VUF15485, range over assays, read-out: pIC50 values, inhibition of VUF15485-responses (converted)) [nM]	EC50 (ACKR3 [5]; inverse agonist, range over all assay setups, read-out: pEC50 values, inhibition of constitutive ACKR3-mediated responses (converted)) [nM]
COc1cc(C(=O)N(CCC2CCCN2C)CC(C)=Cc2ccccc2F)cc(OC)c1OC (centres unmarked) [VUF15485, reference compound]	15.8	12.6	39.8	6	7.94 to 39.8	–	–	–	–	–	–	–	–	–	–	–	–	–	–	–
COc1ccccc1CCNC(=O)C1CN(C2CCCCC2)CCC1NC(=O)c1cc(-c2ccc(F)cc2F)on1 (centres unmarked) [VUF16840]	15.8	10	5.01	–	–	nonsurmountable	6.3	20	10	2	2.51	10	2.51	5.01	2	10	50.1	increased the bystander BRET signals	2 to 50.1	1.58 to 10
